Values joined by “and” are separate entries in the source; they are usually repeats but may differ in a detail not shown here. Equal entries are not always repeated. Toxic doses and inconclusive results are not listed. Rule for the calls: active = survival T/C of 150% or more; inactive = T/C below 125% in these data. Numbered stars: 1 amine (or outer) side, 2 acyl side, 3 side chain; on linkers, the order of the positions; unused ones are H or OH. Bridge positions count the residues as written; N and C are the ends. Square brackets hold non-standard residues; d marks the D form. Peptide text beside a SMILES is read from it. I, II: the chains in the order shown. * marks the point of attachment. ξ: configuration not given here. Quinaldoyl(3-OH,6-OMe) = COc1ccc2nc(C(=O)*)c(O)cc2c1; X8 = CC(=O)OC1CC=NN([*:1])C1C(=O)[*:2]; ξNMeVal(3-OH) = CNC(C(=O)O)C(C)(C)O; X7 = O=C(C1C(O)CC=NN1[*:1])[*:2]; Sar = CNCC(=O)O
System: P388 leukemia ip, CD2F1 mice, survival T/C
Assay: NCI In Vivo Anticancer Drug Screen. Data for tumor model P388 Leukemia (intraperitoneal) in CD2F1 (CDF1) mice
Details: endpoint: median survival time, higher = longer survival
Outline: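 Mice carrying the transplanted tumor received test compound or vehicle. Survival was recorded in each group, and the value is the treated-group measurement divided by that of the vehicle-treated control group.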

[1] = dose: 25.0 mg/kg/injection, schedule: Q01DX009 (ip), vehicle: saline with Tween-80
[2] = dose: 50.0 mg/kg/injection, schedule: Q01DX009 (ip), vehicle: saline with Tween-80
[3] = dose: 100.0 mg/kg/injection, schedule: Q01DX009 (ip), vehicle: saline with Tween-80
[4] = dose: 200.0 mg/kg/injection, schedule: Q01DX009 (ip), vehicle: saline with Tween-80
[5] = dose: 60.0 mg/kg/injection, schedule: Q01DX005 (ip), vehicle: Klucel (hydroxypropylcellulose) (HPC)
[6] = dose: 120.0 mg/kg/injection, schedule: Q01DX005 (ip), vehicle: Klucel (hydroxypropylcellulose) (HPC)
[7] = dose: 240.0 mg/kg/injection, schedule: Q01DX005 (ip), vehicle: Klucel (hydroxypropylcellulose) (HPC)
[8] = dose: 50.0 mg/kg/injection, schedule: Q01DX009 (ip), vehicle: saline
[9] = dose: 100.0 mg/kg/injection, schedule: Q01DX009 (ip), vehicle: saline
[10] = dose: 200.0 mg/kg/injection, schedule: Q01DX009 (ip), vehicle: saline
[11] = dose: 12.5 mg/kg/injection, schedule: Q01DX009 (ip), vehicle: saline with Tween-80

Measured: T/C

Nc1c(Cl)cc(C(=O)NC2CC2)cc1Cl
inactive: [1] 94 % of control and 95 % of control | [2] 100 % of control and 88 % of control | [3] 102 % of control and 113 % of control | [4] 109 % of control and 89 % of control

COc1ccc(C(=O)C(=O)c2ccc(OC)cc2)cc1
inactive: [5] 99 % of control | [6] 98 % of control | [7] 100 % of control

O=c1c2ccccc2sc2c([N+](=O)[O-])ccc(NCCNCCO)c12
inactive: [2] 120 % of control and 123 % of control

CC(C)N1CCN(c2ccncc2S(=O)(=O)N2CCCC2)CC1
inactive: [8] 87 % of control | [9] 99 % of control | [10] 97 % of control

Nc1c[nH]ccc1=O
inactive: [9] 102 % of control | [10] 100 % of control | dose: 400.0 mg/kg/injection, schedule: Q01DX009 (ip), vehicle: saline 99 % of control

CCCCOP(=O)(NNP(=O)(OCCCC)OCCCC)OCCCC
inactive: [1] 102 % of control | [2] 102 % of control | [3] 100 % of control | [4] 101 % of control

CC(C)(C)c1cc(C(C)(C)C)c2oc(C(=O)O)cc(=O)c2c1
inactive: [8] 95 % of control | [9] 97 % of control

COc1ccc(OC)c2c1CC(C(C)=O)CC2=O (stereo not drawn)
inactive: dose: 12.5 mg/kg/injection, schedule: Q01DX009 (ip), vehicle: other 99 % of control | dose: 25.0 mg/kg/injection, schedule: Q01DX009 (ip), vehicle: other 112 % of control | dose: 50.0 mg/kg/injection, schedule: Q01DX009 (ip), vehicle: other 105 % of control | dose: 100.0 mg/kg/injection, schedule: Q01DX009 (ip), vehicle: other 108 % of control | dose: 200.0 mg/kg/injection, schedule: Q01DX009 (ip), vehicle: other 107 % of control

S=c1nc2ccccn2c(=S)n1-c1ccccn1
inactive: dose: 50.0 mg/kg/injection, schedule: Q04DX003 (ip), vehicle: saline with Tween-80 95 % of control | dose: 100.0 mg/kg/injection, schedule: Q04DX003 (ip), vehicle: saline with Tween-80 115 % of control

Cc1ccc2c(c1)sc1n[nH]c(=S)n12
inactive: dose: 50.0 mg/kg/injection, schedule: Q01DX009 (ip), vehicle: Klucel (hydroxypropylcellulose) (HPC) 100 % of control | dose: 100.0 mg/kg/injection, schedule: Q01DX009 (ip), vehicle: Klucel (hydroxypropylcellulose) (HPC) 100 % of control | dose: 200.0 mg/kg/injection, schedule: Q01DX009 (ip), vehicle: Klucel (hydroxypropylcellulose) (HPC) 100 % of control

CCCCCCCCCCCCCCCC(=O)N(CCCCCCCCCN(CCCN(C)C)C(=O)CCCCCCCCCCCCCCC)CCCN(C)C
inactive: dose: 3.13 mg/kg/injection, schedule: Q01DX009 (ip), vehicle: water 108 % of control | dose: 6.25 mg/kg/injection, schedule: Q01DX009 (ip), vehicle: water 109 % of control | dose: 12.5 mg/kg/injection, schedule: Q01DX009 (ip), vehicle: water 105 % of control | dose: 25.0 mg/kg/injection, schedule: Q01DX009 (ip), vehicle: water 93 % of control and 96 % of control | dose: 50.0 mg/kg/injection, schedule: Q01DX009 (ip), vehicle: water 103 % of control

CC(O)COCCOCCO (stereo not drawn)
inactive: dose: 100.0 mg/kg/injection, schedule: Q04DX003 (ip), vehicle: saline 100 % of control | dose: 200.0 mg/kg/injection, schedule: Q04DX003 (ip), vehicle: saline 100 % of control | dose: 400.0 mg/kg/injection, schedule: Q04DX003 (ip), vehicle: saline 104 % of control

O=C1c2c(O)ccc(O)c2C(=O)c2c(NCCCCCO)ccc(NCCCCCO)c21
inactive: dose: 20.0 mg/kg/injection, schedule: Q01DX009 (ip), vehicle: Klucel (hydroxypropylcellulose) (HPC) 94 % of control | dose: 40.0 mg/kg/injection, schedule: Q01DX009 (ip), vehicle: Klucel (hydroxypropylcellulose) (HPC) 89 % of control | dose: 80.0 mg/kg/injection, schedule: Q01DX009 (ip), vehicle: Klucel (hydroxypropylcellulose) (HPC) 93 % of control | dose: 160.0 mg/kg/injection, schedule: Q01DX009 (ip), vehicle: Klucel (hydroxypropylcellulose) (HPC) 93 % of control | dose: 320.0 mg/kg/injection, schedule: Q01DX009 (ip), vehicle: Klucel (hydroxypropylcellulose) (HPC) 111 % of control

COc1cc(C)c(C)cc1C1(c2cc(C)c(C)cc2O)C(=O)c2ccccc2C1=O
inactive: [8] 100 % of control | [9] 93 % of control

O=C1CN(C2CCCCC2Br)C(=O)CN1C1CCCCC1Br (stereo not drawn)
inactive: [5] 97 % of control | [6] 94 % of control | [7] 96 % of control

O=C(CCl)Nc1nccs1
inactive: [11] 111 % of control | [1] 112 % of control | [2] 103 % of control | [3] 116 % of control

Cc1cnc(Sc2ncccc2[N+](=O)[O-])nc1
inactive: [8] 109 % of control | [9] 109 % of control | [10] 116 % of control

COc1c2ccoc2nc2c(OCC=C(C)C)c3c(cc12)OCO3
inactive: dose: 5.0 mg/kg/injection, schedule: Q01DX005 (ip), vehicle: Klucel (hydroxypropylcellulose) (HPC) 101 % of control | dose: 10.0 mg/kg/injection, schedule: Q01DX005 (ip), vehicle: Klucel (hydroxypropylcellulose) (HPC) 100 % of control | dose: 20.0 mg/kg/injection, schedule: Q01DX005 (ip), vehicle: Klucel (hydroxypropylcellulose) (HPC) 100 % of control | dose: 40.0 mg/kg/injection, schedule: Q01DX005 (ip), vehicle: Klucel (hydroxypropylcellulose) (HPC) 101 % of control | dose: 80.0 mg/kg/injection, schedule: Q01DX005 (ip), vehicle: Klucel (hydroxypropylcellulose) (HPC) 94 % of control

O=C1/C(=C/c2cccc(O)c2)COc2ccccc21
inactive: dose: 60.0 mg/kg/injection, schedule: Q01DX005 (ip), vehicle: saline with Tween-80 95 % of control | dose: 120.0 mg/kg/injection, schedule: Q01DX005 (ip), vehicle: saline with Tween-80 94 % of control | dose: 240.0 mg/kg/injection, schedule: Q01DX005 (ip), vehicle: saline with Tween-80 87 % of control

CC12CCC(S)CC1=CCC1C2CCC2(C)/C(=N/NC(N)=S)CCC12 (stereo not drawn)
inactive: dose: 25.0 mg/kg/injection, schedule: Q01DX009 (ip), vehicle: distilled water + Tween-80 105 % of control | dose: 50.0 mg/kg/injection, schedule: Q01DX009 (ip), vehicle: distilled water + Tween-80 100 % of control | dose: 100.0 mg/kg/injection, schedule: Q01DX009 (ip), vehicle: distilled water + Tween-80 105 % of control | dose: 200.0 mg/kg/injection, schedule: Q01DX009 (ip), vehicle: distilled water + Tween-80 98 % of control | dose: 400.0 mg/kg/injection, schedule: Q01DX009 (ip), vehicle: distilled water + Tween-80 107 % of control

C=CC(C#N)(C=C)C=C
inactive: [11] 104 % of control | [1] 103 % of control | [2] 108 % of control

COc1ccccc1N=NC(C#N)C(N)=O (stereo not drawn)
inactive: [1] 102 % of control | [2] 101 % of control

COc1ccc2nc(C(=O)NC3COC(=O)C(C(C)(C)O)N(C)C(=O)CN(C)C(=O)CNC(=O)C4C(OC(C)=O)CC=NN4C(=O)C(NC(=O)c4nc5ccc(OC)cc5cc4O)COC(=O)C(C(C)(C)O)N(C)C(=O)CN(C)C(=O)CNC(=O)C4C(O)CC=NN4C3=O)c(O)cc2c1 (stereo not drawn) (I: {Quinaldoyl(3-OH,6-OMe)}-S[X7]G[Sar][ξNMeVal(3-OH)] / II: {Quinaldoyl(3-OH,6-OMe)}-S[X8]G[Sar][ξNMeVal(3-OH)]; ester I:1-II:C, I:C-II:1; configuration not given here)
inactive: dose: 6.25 micrograms/kg/injection, schedule: Q01DX005 (ip), vehicle: DMSO 108 % of control | dose: 12.5 micrograms/kg/injection, schedule: Q01DX005 (ip), vehicle: DMSO 112 % of control | dose: 25.0 micrograms/kg/injection, schedule: Q01DX005 (ip), vehicle: DMSO 118 % of control | dose: 50.0 micrograms/kg/injection, schedule: Q01DX005 (ip), vehicle: DMSO 119 % of control | dose: 100.0 micrograms/kg/injection, schedule: Q01DX005 (ip), vehicle: DMSO 123 % of control

Source: PubChem BioAssay AID330 (DTP/NCI, 2004)
